A melting point compilation (Tetko et al.; mined from patent text by program, amines drawn as free bases though some values may be those of a salt)

| Compound | melting point |
| --- | --- |
| O=C(Nc1ccccc1F)c1ccccc1CN1C(=O)C2(COc3cc4c(cc32)CCO4)c2ccccc21 (stereo not given) | 195 to 197 °C |
| c1ccc(CCCn2c(-c3ccc4c(c3)OCO4)nc3ccccc32)cc1 | 99.8 to 100 °C |
| O=C(C=CCl)c1cc(F)c(Cl)cc1Cl | 65 to 70 °C |
| O=C1NC(=O)C2(CCNCC2)N1Cc1ccccc1 | 195 to 196 °C |
| CC1(C)Cc2nc(N3CCOc4ccc(Br)cc43)sc2C(=O)N1 | 155 °C |
| CC(/C=C/c1sccc1-c1cc2c(cc1C)C(C)(C)CCC2(C)C)=C\C(=O)O | 208 to 209 °C |
| CCc1cc2[nH]c(=O)c(=O)[nH]c2c([N+](=O)[O-])c1Cl | > 330 °C |
| COc1cc2c(cc1OC)CCN=C2 | 185 to 187 °C |
| COc1cc(NC(=O)CCCCCBr)c2nccc(C)c2c1 | 111 to 113 °C |
| CCOC(=O)C1=C(CS(=O)CCN)NC(C)=C(C(=O)OC)C1c1cccc([N+](=O)[O-])c1 (stereo not given) | 170 to 172 °C |
| CC(C)(C)C(=O)Oc1ccc(-c2nnn(C(C(=O)NCC(=O)O)c3ccccc3)n2)cc1 (stereo not given) | 86 to 93 °C |
| CNC(=S)NCCCSc1nccs1 | 67 to 68 °C |
| CC(=O)OC1c2ccccc2C(=O)N1CCO[N+](=O)[O-] (stereo not given) | 74 to 75 °C |
| C[C@@H](O)Cn1ccc2cc(F)c(F)cc21 | 114 to 116 °C |
| O=C(Nc1ccc(Oc2ccc(Cl)cc2)cc1)N1CC(c2ccccc2)=C(c2ccc(Cl)cc2)N1 | 158 to 161 °C |
| CC(C)Cn1c(CN(C)C(N)=O)nc2c(N)nc3ccccc3c21 | 223 to 225 °C |
| CC(C)(C)OC(=O)NNCc1ccc(-c2ccccc2)cc1 | 84 to 85 °C |
| Cc1cc[nH]c(=O)c1NC(=O)c1ccccc1 | 264 to 265 °C |
| Nc1nc(N)c(CCCc2cccc3ccccc23)c(N)n1 | 181 to 183 °C |
| COc1cc(Cl)cc(C)c1Nc1nc2c(Cl)ccc(C(=C(C)C)C(C)C)c2n1C | 166 to 168 °C |
| COc1ccc(C#CCCCCCCC#CCO)cc1OC | 39 to 41 °C |
| CC1(C)CC(CN2CCNC2=N[N+](=O)[O-])CO1 (stereo not given) | 119 to 120 °C |
| CCOC(=O)C(=O)c1ccc(SCC2CC2)[nH]1 | 46 °C |
| COC(=O)c1cc(OC(C)C)nn1Cc1ccc(Cl)cc1Cl | 89 to 90 °C |
| COC(=S)C(C)Cc1ccc(OCc2nc3ccc(SC)cc3n2C)cc1 (stereo not given) | 97 to 100 °C |
| CCc1nn(CC2CC2)c2cc(C(=O)Nc3c(Cl)cncc3Cl)ccc12 | 148 to 150 °C |
| Cc1ccc(S(=O)(=O)OC2CCC3(C)C4CCC5(C)C(=O)CCC5C4CC(O)C3(O)C2)cc1 (stereo not given) | 154 to 156 °C |

| Compound | melting point |
| --- | --- |
| CC(O)CNc1cc(Cl)cc(NCC(C)O)c1[N+](=O)[O-] (stereo not given) | 170 °C |
| Cc1cc(C)cc(C(=O)N2CCC(N3CCC(=C4c5ccccc5CCn5ccnc54)CC3)CC2Cc2ccccc2)c1 (stereo not given) | 139 °C |
| NC(=O)N(O)CCNC(=O)c1cccc(Oc2cc(Cl)cc(Cl)c2)c1 | 164 to 166 °C |
| CN(C)S(=O)(=O)c1cn(C)c2cc(Cl)ccc2c1=O | 207 to 209 °C |
| CCOC(=O)c1sc(C)nc1S | 62 to 66 °C |
| CS(=O)(=O)c1ccc(-n2nc(-c3ccc4c(c3)CCN(C3CCC3)CC4)ccc2=O)cc1 | 225 °C |
| C#CCCCOc1ccc(C=O)cc1OC | 91 to 92 °C |
| CC(C)=CC(=O)c1sccc1O | 32 to 33 °C |
| C(=C\c1nc(COc2ccc(CCCCn3cncn3)cc2)co1)/c1ccccc1 | 94 to 95 °C |
| CC(=O)Nc1nc(C)c(CCN2CCN(C(c3ccccc3)c3ccccc3)CC2)s1 | 166 to 168 °C |
| Oc1cc(I)c(I)cc1O | 116 °C |
| CC=C1c2ccccc2CC(NO)c2ccccc21 (stereo not given) | 121 to 124 °C |
| CCCCc1nc(NC(=N)N)sc1-c1cccc([N+](=O)[O-])c1 | 140 to 142 °C |
| CC1(C)SCCN(S(=O)(=O)c2ccc(-c3ccc(Br)cc3)cc2)C1C(=O)NO (stereo not given) | 190 to 192 °C |
| CCCCCCCCCc1ccc2c(c1)C1(O)C(=O)c3ccccc3C1(O)O2 (stereo not given) | 108 to 110 °C |
| CCOC(=O)C1=C(C)NC(c2csc(NC(C)=O)n2)=NC1c1ccc(F)cc1Cl (stereo not given) | 220 to 223 °C |
| CCOC(=O)c1nc(C2CC2)nc(NCc2ccccc2)c1Cl | 59 to 61 °C |
| O=C1CC(C(F)(F)F)CC(=O)N1c1ccc(Br)cc1 | 163 to 164 °C |
| CCCCCCCCCCCCCCOc1ccc(C(N)=O)cc1 | 128 to 130 °C |
| CNC(=O)c1ccc(N2CCN(Cc3cc(Cc4ccccc4)c4c(c3)NC(=O)C(C)O4)CC2)cc1 (stereo not given) | 227 to 231 °C |
| Cc1ccc2c(c1)N=C(N1CCN(C)CC1)c1cccc3ccn-2c13 | 202 to 204 °C |
| CCCCCC(CC(=O)Nc1cc(C(N)=O)ccc1C(C)(C)C)c1cc(C(=O)OC)c(OC)cc1OC (stereo not given) | 101 to 103 °C |
| Cc1cccc(Cn2cc(C(=O)C(=O)NC3=CC(=O)OC3)c3ccccc32)c1 | 298 to 300 °C |
| O=c1cc(Sc2ccccc2)c(-c2nc[nH]n2)nn1-c1ccccc1 | 245 to 250 °C |
| CCc1nc(-c2cc(Cl)c(O)c(Cl)c2)no1 | 126 °C |
| O=C(NNC1=NS(=O)(=O)c2ccccc21)c1ccncc1 | 288 to 289 °C |
| ON=Cc1ccc(OCc2csc(-c3ccccc3)n2)cc1 | 175 to 179 °C |

| Compound | melting point |
| --- | --- |
| Cn1c(=O)n(CCCC(NS(=O)(=O)c2ccc(-c3ccc(Cl)cc3)cc2)C(=O)NO)c(=O)c2ccccc21 (stereo not given) | 235 °C |
| CCCOC(=O)C1=C(C)NC(C#N)=C(C(=O)OC)C1c1ccccc1C#N (stereo not given) | 150 to 152 °C |
| COC(=O)C1(CC#N)C(=O)N(C)C(=O)c2ccccc21 (stereo not given) | 120 to 122 °C |
| CC(=O)c1ccc(N(C(C)=O)c2ccccc2)cc1 | 118 to 120 °C |
| CN1c2cscc2CNc2ccccc21 | 125 to 127 °C |
| CC(C)(CNC(=O)Cc1cnc[nH]1)c1ccc(C(=O)Nc2cn3cc(C(F)(F)F)ccc3n2)cc1 | 261 to 263 °C |
| COc1cc(N)c(Cl)cc1C(=O)NCC1CCN(CCCCCC(=O)c2ccc(C)cc2)CC1 | 130 to 131 °C |
| CC(=O)CCCc1c[nH]c2ccccc12 | 89 to 90 °C |
| COc1ccc(C(=O)O)nc1Oc1cccc(C(F)(F)F)c1 | 116 to 118 °C |
| Cc1nc2c(C=O)cccn2c1Br | 137 to 139 °C |
| Nc1nc(-c2cc(Cl)ccc2Cl)nc(N2CCNC(=O)C2)n1 | > 275 °C |
| COc1ccc(-c2cccc(-c3ccc(OC)c(F)c3)n2)cc1F | 108 °C |
| COc1ccc(CC(C)(C)NC(=O)N(C)O)cc1OC | 77 to 78 °C |
| N#Cc1cccc(Br)c1CBr | 90 to 93 °C |
| COc1ccccc1-n1c(=O)[nH]c2c(OC)cccc21 | 246 to 247 °C |
| O=C(O)COc1c(I)cc(-c2c3ccccc3cc3sc4ccccc4c23)cc1I | 250 to 252 °C |
| OCCCc1cnoc1-c1ccc(-c2ccccc2)cc1 | 94 to 95 °C |
| CCOC(=O)Cc1cnc(C(C)(C)C)nc1Cl | 42 to 44 °C |
| Nc1cc(C=C2OC(=O)c3ccccc32)ccc1F | 189 to 191 °C |
| COc1ccc(Cl)cc1C1(O)C(=O)Nc2ccc(C(F)(F)F)cc21 (stereo not given) | 218 to 220 °C |
| COc1ccc2c(c1)CCC(C(O)C(=O)O)C2=O (stereo not given) | 212 to 214 °C |
| CC(C)(O)Cn1c(CO)nc2c(N)nc3cc(-c4cccc(C(=O)N5CCCC5)c4)cnc3c21 | 157 to 160 °C |
| Cc1ccc2ncn(C3CCC(=O)NC3=O)c(=O)c2c1 (stereo not given) | 285 to 287 °C |
| CCOC(=O)C(=CNC1CC1)C(=O)c1cc(F)c(F)c(OC)c1F | 56 to 58 °C |
| CCOP(=O)(CCC(OC)(C(=O)c1ccccc1)c1ccccc1)OCC (stereo not given) | 60 to 62 °C |
| COc1ccc2cc(C(C)C(=O)OCc3ccc(OC(=O)OCC[Si](C)(C)C)cc3)ccc2c1 (stereo not given) | 58 to 59 °C |
| CC1CC(C)(C)C(=O)C(C(=O)c2ccc(OC(F)F)cc2[N+](=O)[O-])C1=O (stereo not given) | 108 to 110 °C |

| Compound | melting point |
| --- | --- |
| O=c1[nH]c2cc(Cl)cc(Cl)c2c(=O)n1Cc1cccc([N+](=O)[O-])c1 | 314 to 317 °C |
| CC(=O)OCC1Cc2cc(I)ccc2N1 (stereo not given) | 64 to 66 °C |
| CCOC(=O)C(=O)Nc1ccc(Cl)ccc1=O | 178 to 179 °C |
| CCc1nc(-c2ccc(OCCCn3ccnc3)cc2)no1 | 74 to 75.5 °C |
| O=C(Nc1ccc2ccc(Cl)cc2n1)c1ccccc1 | 133 °C |
| COC(=O)CNc1cc2cc(OC)ccc2cc1OCc1ccccc1 | 129 to 131 °C |
| NC(=O)C1CCCN(C(c2ccccc2)c2ccccc2)C1 (stereo not given) | 86 to 87 °C |
| COC(=O)c1ccc(OCc2ccc3ccccc3n2)cc1C1(c2ccccc2)CC2CCC1C2 (stereo not given) | 106 to 107 °C |
| O=C1C(=O)N(C(c2ccccc2)c2ccccc2)c2cccc(F)c21 | 168 to 171 °C |
| CCc1nc2cc(NS(C)(=O)=O)c(Cl)cc2n1-c1ccc(CCNC(=O)NS(=O)(=O)c2ccc(C)cc2)cc1 | 101 to 123 °C |
| COc1nc2ccccn2c(=O)c1-c1ccc(Cl)cc1 | 149 to 151 °C |
| CCc1cccc2c1C(=O)C(=S)N2 | 171 to 172 °C |
| Cn1c(=O)c2c(nc(C=Cc3cccc(N(C(=O)OC(C)(C)C)C(=O)OC(C)(C)C)c3)n2C)n(C)c1=O | 175 to 177 °C |
| N#CCCCCn1c(=O)sc2c(=O)[nH]c(N)nc21 | 240 to 243 °C |
| O=C1c2cccc(NC(=S)Nc3cc[nH]n3)c2C2CCCCN12 (stereo not given) | 208 °C |
| CCCCc1nc2c(N)nc3ccccc3c2n1CCCNS(C)(=O)=O | 239 to 241 °C |
| CC12C=CC(=O)CC1CCC1C2CCC2(C)C1CCC2(C)O (stereo not given) | 140 to 142 °C |
| COC(=O)c1ccc(S(=O)(=O)Cc2c(O)ccc3c2CCCC3=O)cc1 | 132 to 134 °C |
| O=c1[nH]cnc2cc(Cl)c(Oc3ccc(Cl)cc3)cc12 | 250 to 252 °C |
| OCc1c(F)cccc1NC1CCN(Cc2ccccc2)CC1 | 167 to 170 °C |
| Brc1cn2c(Br)cnc2c(N2CCCCC2)n1 | 72 °C |
| CCC(=O)N1CCC(NC(=O)Nc2cccc(Cl)c2)CC1 | 165 to 166 °C |
| CNC(=O)c1cc(-c2ccc(OC)cc2)nn(CC(=O)NCCO)c1=O | 240 to 241 °C |
| CCCCNc1cc(CNc2ccccc2)cc(S(N)(=O)=O)c1Oc1ccccc1 | 142 to 143 °C |
